Measured values reported in US7326786B2, “Thiazolinone unsubstituted quinolines” (Hoffmann-La Roche Inc., priority 2004, dated 2008).

Biological target: T1, recombinant human CDK1/Cyclin B complex (Homo sapiens, UniProt P06493)
T1 construct: made in house; host or cells: High Five insect cells (baculovirus) for CDK1/GST-cyclin B; E. coli M15 for the Rb substrate
Test: CDK1/Cyclin B kinase assay (FlashPlate or HTRF)
Format: biochemical
Conditions: Rb protein substrate, Ki=IC50/(1+[S]/Km)
Method: To determine inhibition of CDK1 activity, either FlashPlate™ (NEN™-Life Science Products) assay or HTRF Homogeneous Time Resolved Fluorescence assay was performed. Both types of kinase assays were carried out using recombinant human CDK1/Cyclin B complex. GST-cyclinB (GST-cycB) and CDK1 cDNA clones in baculovirus vectors were provided by Dr. W. Harper at the Baylor College of Medicine, Houston, Tex. Proteins were co-expressed in High Five™ insect cells and the complex was purified on glutathione Sepharose resin (Pharmacia, Piscataway, N.J.) as previously described (Harper, J. W. et al. Cell 1993, 75, 805-816). A 6×-Histidine tagged truncated form of retinoblastoma (Rb) protein (amino acid 386-928) was used as the substrate for the CDK1/Cyclin B assay (the expression plasmid was provided by Dr. Veronica Sullivan, Department of Molecular Virology, Roche Research Centre, Welwyn Garden City, United Kingdom). The Rb protein is a natural substrate for phosphorylation by CDK1 (see Herwig and Strauss Eur. J. Biochem. Vol. 246 (1997) pp. 581-601 and the references cited therein). The expression of the 62Kd protein was under the control of an IPTG inducible promoter in an M15 E. coli strain. Cells were lysed by sonication and purification was carried out by binding lysates at pH 8.0 to a Ni-chelated agarose column pretreated with 1 mM imidazole. The resin was then washed several times with incrementally decreasing pH buffers to pH 6.0, and eluted with 500 mM imidazole. Eluted protein was dialysed against 20 mM HEPES [4-(2-hydroxyethyl)-1-piperazineethanesulfonic acid, sodium salt] pH 7.5, 30% glycerol, 200 mM NaCl, and 1 mM DTT (dithiothreitol). Purified Rb fusion protein stocks were quantitated for protein concentration, aliquoted, and stored at −70° C.
For the FlashPlate kinase asasy, 96-well FlashPlates were coated with Rb protein at 10 μg/ml, using 100 μl per well. Plates were incubated at 4° C. overnight or at room temperature for 3 hours on a shaker. To control for nonspecific phosphorylation, one row of wells was coated with 100 μl/well coating buffer (20 mM HEPES, 0.2 M NaCl). Plates were then washed twice with wash buffer (0.01% Tween 20 in phosphate-buffered saline). Compounds to be tested (“test compounds”) were added to the wells at 5× final concentration. Reactions were initiated by immediate addition of 40 μl reaction mix (25 mM HEPES, 20 mM MgCl2, 0.002% Tween 20, 2 mM DTT, 1 μM ATP, 4 nM 33P-ATP) and a sufficient amount of enzyme to give counts that were at least 10-fold above background. Plates were incubated at room temperature on a shaker for 30 minutes. Plates were washed four times with the wash buffer, sealed, and counted on the TopCount scintillation counter (Packard Instrument Co., Downers Grove, Ill.]. The percent inhibition of Rb phosphorylation, which is a measure of the inhibition of CDK activity, was determined according to the following formula:
[formula] where “test compound” refers to the average counts per minute of the test duplicates, “nonspecific” refers to the average counts per minute when no CDK1/Cyclin B, etc., was added, and “total” refers to the average counts per minute when no compound was added. The IC50 value is the concentration of test compound that reduces by 50% the protein-kinase induced incorporation of the radiolabel under the test conditions described. The value of the inhibitor constant Ki is calculated by the following: Ki=IC50/(1+[S]/Km), where [S] is the ATP concentration and Km is Michaelis constant.
The Homogeneous Time Resolved Fluorescence (HTRF) kinase assay was carried out in 96-well polypropylene plates (BD Biosciences, Bedford, Mass.). Test compounds were first dissolved in DMSO, and then diluted in kinase assay buffer 1 (25 mM HEPES, pH7.0, 8 mM MgCl2, 1.5 mM DTT, and 162 μM ATP) with DMSO concentration at 15%. The CDK1/Cyclin B enzyme was diluted in kinase assay buffer 2 (25 mM HEPES, pH 7.0, 8 mM MgCl2, 0.003% Tween 20, 0.045% BSA, 1.5 mM DTT, and 0.338 μM Rb protein). […]

T1 sequence (P06493 whole entry): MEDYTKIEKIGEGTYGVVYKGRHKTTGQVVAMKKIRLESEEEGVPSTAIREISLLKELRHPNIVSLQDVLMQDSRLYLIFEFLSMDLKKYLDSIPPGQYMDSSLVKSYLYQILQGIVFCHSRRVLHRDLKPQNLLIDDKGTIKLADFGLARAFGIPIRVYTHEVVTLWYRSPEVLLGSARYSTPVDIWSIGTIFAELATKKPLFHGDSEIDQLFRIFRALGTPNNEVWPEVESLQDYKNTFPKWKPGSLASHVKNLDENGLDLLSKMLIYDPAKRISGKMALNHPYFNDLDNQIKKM
T1 sequence (P14635 whole entry partner): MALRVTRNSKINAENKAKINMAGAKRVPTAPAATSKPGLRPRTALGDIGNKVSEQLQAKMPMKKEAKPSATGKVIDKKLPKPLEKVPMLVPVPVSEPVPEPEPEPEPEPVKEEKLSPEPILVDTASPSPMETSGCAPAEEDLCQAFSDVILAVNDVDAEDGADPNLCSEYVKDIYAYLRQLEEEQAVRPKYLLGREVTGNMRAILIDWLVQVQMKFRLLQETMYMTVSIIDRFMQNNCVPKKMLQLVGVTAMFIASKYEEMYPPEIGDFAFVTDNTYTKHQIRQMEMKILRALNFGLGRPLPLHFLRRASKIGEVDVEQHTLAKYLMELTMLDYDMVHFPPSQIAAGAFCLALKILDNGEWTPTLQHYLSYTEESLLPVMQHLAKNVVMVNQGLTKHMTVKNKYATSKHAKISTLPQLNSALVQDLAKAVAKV

SMILES	Ki
COc1ccc(OC)c(CCNC2=NC(=O)/C(=C/c3ccc4ncccc4c3)S2)c1 [Example 5, 2-[2-(2,5-Dimethoxy-phenyl)-ethylamino]-5-[1-quinolin-6-yl-meth-(Z)-ylidene]-thiazol-4-one]	838 nM
COc1ccccc1CNC1=NC(=O)/C(=C/c2ccc3ncccc3c2)S1 [Example 10, 2-(2-Methoxy-benzylamino)-5-[1-quinolin-6-yl-meth-(Z)-ylidene]-thiazol-4-one]	148 nM
O=C1N=C(N[C@@H](CO)Cc2ccccc2)S/C1=C\c1ccc2ncccc2c1 [Example 20, 2-((R)-1-Hydroxymethyl-2-phenyl-ethylamino)-5-[1-quinolin-6-yl-meth-(Z)-ylidene]-thiazol-4-one]	604 nM
O=C1N=C(NC(CO)c2cccs2)S/C1=C\c1ccc2ncccc2c1 (stereo not drawn) [Example 25, 2-(2-Hydroxy-1-thiophen-2-yl-ethylamino)-5-[1-quinolin-6-yl-meth-(Z)-ylidene]-thiazol-4-one]	596 nM
O=C1N=C(N[C@@H]2c3ccccc3C[C@@H]2O)S/C1=C\c1ccc2ncccc2c1 [Example 30, 2-((1R,2S)-2-Hydroxy-indan-1-ylamino)-5-[1-quinolin-6-yl-meth-(Z)-ylidene]-thiazol-4-one]	3000 nM
O=C1N=C(NCC(c2ccccc2)N2CCOCC2)S/C1=C\c1ccc2ncccc2c1 (stereo not drawn) [Example 35, 2-(2-Morpholin-4-yl-2-phenyl-ethylamino)-5-[1-quinolin-6-yl-meth-(Z)-ylidene]-thiazol-4-one]	3300 nM
